# “Also recorded” adds a separate entry of the source.
# Assays:
# [1] = test system: cyclic-adenosine-5′,3′-monophosphate (cAMP)-specific phosphodiesterase (PDE IV); settings: literature; cited from earlier work
# GLT-1 [2] = assay: Western blot of ipsilateral lumbar spinal cord, GLT-1 protein; format: in vivo, rat; settings: day 12 post-transection
# Protocol: Tissue was collected from 4-5 rats/group on postoperative days 4 or 12. In order to obtain both mRNA and protein from the same tissue sample, the L5 region of the spinal cord (ipsilateral to the injury), was isolated and placed in PBS supplemented with protease inhibitor cocktail (1:1000, Sigma Chemical Co., St. Louis, Mo.) and RNase inhibitor (0.75 U/μL Ambion, Austin, Tex.). Samples were sonicated in five one-second bursts at half-maximal power, centrifuged at 6500 rpm for 15 minutes at 4° C. Protein-containing supernatants were collected and stored at −80° C. until further processing by Western blot analysis. The pellet was treated with TRIzol reagent (Invitrogen, Carlsbad, Calif.) for the extraction of total RNA according to the manufacturer's specifications.
# Protein obtained from L5 lumbar spinal cord was quantified using the Lowry method (DC assay, Bio-Rad, Hercules, Calif.). Forty micrograms of protein and standard protein markers were subjected to SDS polyacrylamide gel electrophoresis (7.5% gel, Bio-Rad, Hercules, Calif.) and id transferred to polyvinylidene difluoride (PVDF, Bio-Rad, Hercules, Calif.) filters. Nonspecific binding was blocked by incubation with 5% milk/PBS-T at room temperature for 1 hour followed by incubation overnight at 4° C. with monoclonal guinea pig anti-GLT-1 or guinea pig anti-GLAST (1:2500, Chemicon). […]
# GLT-1 [3] = assay: Immunocytochemistry of cultured astrocytes, GLT-1 staining; format: cell-based, rat; settings: treated astrocytes
# Protocol: Primary astrocyte-enriched cultures were plated onto sterile 18 mm glass coverslips. After three washes in PBS, cells were permeabilized in 5% glacial acetic acid/95% ethanol (acid-alcohol) for 10 minutes. After washing, cells were incubated in a 1% normal goat serum for 30 minutes and then overnight at 4° C. in primary mouse anti-GFAP (1:500), rabbit anti-GLT-1 (1:500) or guinea pig anti-GLAST (1:2000). The following day, cells were washed and then incubated for 2 hours at room temperature with goat anti-mouse Alexa Fluor™-555 (Invitrogen Corporation, Carlsbad, Calif.) goat anti-guinea pig Alexa Fluor™-488 (Invitrogen Corporation, Carlsbad, Calif.) or goat anti-rabbit Alexa Fluor™-488 (Invitrogen Corporation, Carlsbad, Calif.; all at 1:250). Finally, cells were post-fixed in acid-alcohol and mounted with Vectashield (Vector Labs, Burlingame, Calif.) containing 4′,6-diamidino-2-phenylindole dihydrochloride hydrate (DAPI, Sigma Chemical Co., St Louis, Mo.), in order to visualize cell nuclei. The sections were examined with a fluorescence microscope, and images were captured with a Q-Fire cooled camera (Olympus, Melville, N.Y.). Confocal microscopy was also performed using a Zeiss LSM 510 Meta confocal microscope (Carl Zeiss AG, Oberkochen, Germany). Merged color images were processed using Adobe Photoshop 7.0 (Adobe Systems, San Jose, Calif.).
# GLT-1 [4] = assay: Western blot of cultured astrocytes, GLT-1 protein; format: cell-based, rat
# Protocol: After approximately 14 days (2 days after subplating into plates, DIV 14) astrocytes had formed a confluent monolayer. […] Phase contrast microscopy was then carried out in order to assess the morphology of cells after the various treatments. Length of astrocyte processes was quantified by measuring all processes in 2-3 phase contrast images/group by an independent observer, blinded to the treatment groups using Image J v1.34s (National Institutes of Health, Bethesda, Md.).
# Cells were scraped into PBS containing a protease inhibitor cocktail (1:1000, Sigma Chemical Co., St. Louis, Mo.) and then lysed by sonication in 5 one-second pulses. The samples were stored at −80° C. until use. Total protein was determined using the Lowry method (DC assay, Bio-Rad, Hercules, Calif.). Forty micrograms of protein (diluted in sample buffer and boiled) and standard protein markers were subjected to SDS/7.5% polyacrylamide gel electrophoresis and transferred to polyvinylidene difluoride (PVDF) membranes. Nonspecific binding was blocked by incubation with 5% milk/PBS-Tween at room temperature for 1 hour followed by incubation overnight at 4° C. with rabbit anti-GLT-1 (1:500) or guinea pig anti-GLAST (1:2500). The following day, blots were washed and incubated for 1 hour at room temperature with goat anti-rabbit HRP-conjugated secondary (1:3000) or goat anti-guinea pig HRP-conjugated secondary antibody (1:5000) and visualized with enhanced chemiluminescence (ECL). Images were obtained using the Typhoon Imaging System (Amersham-GE Healthcare, Piscataway, N.J.). Finally, blots were incubated for 15 minutes in stripping buffer and reprobed with a monoclonal mouse anti-β-actin antibody (1:10,000) as a loading control. Densitometric analysis was performed using ImageQuant 5.2 (Molecular Dynamics, GE Healthcare, Piscataway, N.J.).
# [5] = test system: Na+-dependent glutamate transport; assay: Na+-dependent [3H]-glutamate uptake in cultured astrocytes; format: cell-based, rat
# Protocol: Primary astrocytes were plated in 6-well plates, as described above. […] Where indicated, 100 μM dihydrokainate (DHK) was added to wells for 10 minutes before the addition of the substrate. Subsequently, [^3H]-glutamate in Na^+ Krebs buffer or Na^+-free Krebs buffer (choline buffer) was added for 4 minutes at 37° C. The reaction was stopped by washing three times with ice cold buffer (0.05 M Tris/0.16 M NaCl, pH 7.4), and cells were lysed with 1 ml 0.1 N NaOH. The radioactivity in a 500 μl lysate aliquot was determined by liquid scintillation counting and a fraction of the lysate was also used for determination of protein concentration using the Lowry method (DC assay, Bio-Rad, Hercules, Calif.). Na^+-dependent transport was calculated as the difference in the radioactivity accumulated in the presence and absence of Na^+ and calculated as nmol/mg protein/min. Results are expressed as uptake relative to control samples.
structure (smiles),measurement,setting,value
CCCn1cnc2c1c(=O)n(CCCCC(C)=O)c(=O)n2C [propentofylline],PDE IV,[1],inhibit
same,GLT-1 protein compared to L5 transection alone,GLT-1 [2],reversed with propentofylline treatment; also recorded: significantly elevated
same,GLT-1 staining,GLT-1 [3],concomitant increase in GLT-1 staining
same,"GLT-1 protein level, in words","GLT-1 [4]; 3 or 7 days, normalized to β-actin",dose-dependently increased levels of GLT-1 protein
same,increase in GLT-1 protein levels,"GLT-1 [4]; 7 days, high dose",100 fold
same,increase in GLT-1 protein levels,GLT-1 [4]; after 3 days of treatment,about 10 fold
same,sensitivity of increased glutamate transport to DHK inhibition,[5]; 100 μM DHK for 10 minutes before substrate,sensitive to DHK inhibition
same,increase in glutamate uptake,"[5]; 100 μM, 7 days",1.7 fold
same,increase in Na+-dependent glutamate transport,"[5]; 1000 μM, 7 days",2.1 fold
same,"glutamate uptake, in words",[5]; 7-day treated cultures,dose-dependent increase in glutamate uptake

# Source: patent US20090227606A1, “Methods for Preventing or Treating Acute and Chronic Pain” (priority 2006, published 2009)
